Where a chain is given by its changes, count along the chain named. Square brackets hold non-standard residues; d marks the D form. Ends that are not written are not given here. pY = N[C@@H](Cc1ccc(OP(=O)(O)O)cc1)C(=O)O
Experiments:
[1] = molecular target: T1, Shc (PTB domain, Shc^PTB) (Homo sapiens, UniProt P29353); experiment: ITC; assay type: binding
T1 sequence (P29353 156-339 limits assumed): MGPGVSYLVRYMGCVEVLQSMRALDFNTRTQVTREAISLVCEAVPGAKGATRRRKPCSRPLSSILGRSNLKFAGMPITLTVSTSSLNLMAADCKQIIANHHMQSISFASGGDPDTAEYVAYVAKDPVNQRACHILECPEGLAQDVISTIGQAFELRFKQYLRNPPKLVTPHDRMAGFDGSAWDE

[2] = molecular target: T2, Shc (PTB domain, Shc^PTB R175Q) (Homo sapiens, UniProt P29353, R285Q); experiment: MST with Atto488-labelled Shc^PTB R175Q; assay type: binding
T2 sequence (P29353 156-339 R285Q limits assumed): T1 sequence (P29353 156-339 limits assumed) with R130Q

[3] = molecular target: T3, Shc phosphotyrosine binding (PTB) domain (UniProt P29353-2 17-207, Atto488 label, 1:1 protein:dye (in the MST only)); experiment: MST
T3 sequence: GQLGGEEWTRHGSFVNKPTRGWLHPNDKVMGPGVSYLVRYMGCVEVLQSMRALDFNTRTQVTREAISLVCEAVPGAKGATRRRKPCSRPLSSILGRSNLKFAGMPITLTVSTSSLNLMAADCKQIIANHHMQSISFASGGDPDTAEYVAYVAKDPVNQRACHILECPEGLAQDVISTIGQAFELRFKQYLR

Q: With `COc1ccc2c(c1)c(CC(=O)O)c(C)n2C(=O)c1ccc(Cl)cc1` [indomethacin] as the molecule, how does the Kd [1] read?
A: 38.2 ± 7.2 µM

Q: What about the Kd [2] of the same molecule?
A: 590 ± 54 µM

Q: With SPAFDNLY[pY]WDQ [ErbB2 pY1122 peptide] as the molecule, how does the Kd [3] read?
A: 0.261 µM

From article PMC6584941 (Cancer Letters, 2019)
